# Results: a melting point compilation (Tetko et al.; mined from patent text by program, amines drawn as free bases though some values may be those of a salt)
row,melting point [°C],SMILES
1,160 to 161,CCOC(=O)c1cc(NCc2ccccc2)c(Nc2ccccc2)c(S(N)(=O)=O)c1
2,163 to 165,COc1ccc(Nc2ccn(-c3ccc(OCC(=O)O)cc3)n2)cc1
3,189 to 191,O=[N+]([O-])c1ccc(S(=O)(=O)N2CCN(c3ccc(F)cc3)CC2)cc1
4,317,CCn1cnc2c(Nc3cccc(C(=O)O)c3)nc(N[C@H]3CC[C@H](O)CC3)nc21
5,129 to 130,CC/C=C/Cn1c(Sc2cc(C)cc(C)c2)c(CC)c(=O)[nH]c1=O
6,224 to 226,COc1cc2c(c(Br)c1OC(C)=O)Sc1cc(F)ccc1N2
7,103 to 104,Cc1cc(CC#N)c(CC#N)cc1C
8,99 to 101,COc1cc2sc(C#N)cc2cc1OC(F)F
9,118 to 120,COc1cc(CSC(=S)N(C)C)nc(N)n1
10,143 to 144,COc1cccc(-c2cn3cc(-c4cccc(CO)c4F)ccc3n2)c1
11,118 to 119,CCCc1nn(-c2ccc(C(F)(F)F)cn2)cc1CCCOc1ccc(CCC(=O)O)cc1
12,153 to 154,CCCNc1cccc2c1C(=O)c1cccc(NCCC)c1C2=O
13,150 to 152,CNC(=O)[C@@H](C[C@H](O)[C@H](CC1CCCCC1)NC(=O)[C@H](Cc1cscn1)NC(=O)[C@@H](CC(=O)N1CCOCC1)Cc1ccccc1)C(C)(C)O
14,158 to 160,CCCC(C(=O)OCC)c1ccc(N2Cc3ccccc3C2=N)cc1 (configuration not stated)
15,85 to 86,CCCc1ccccc1OCCCOc1ccc2c(=O)cc(C#N)oc2c1
16,180 to 182,CC#CCOc1ccc(S(=O)(=O)N[C@@H](C(=O)NO)C2CCC(O)CC2)cc1 (some centres not stated)
17,262 to 263,COC1C(NC(=O)C(F)(F)F)CC(OC2CC(O)(CO)Cc3c(O)c4c(c(O)c32)C(=O)c2ccccc2C4=O)OC1C (configuration not stated)
18,94 to 96,CC(C)(C)C(=O)C=Cc1ccc2c(c1)OCO2
19,190 to 191,Oc1ccc(CNc2ncncc2Cl)cc1
20,55 to 56,CCOC(=O)C1CC(=O)C(C(=O)CC)C(=O)C1 (configuration not stated)
21,160,CC(CNS(C)(=O)=O)Nc1nc(Cl)ncc1Cl (configuration not stated)
22,334 to 336,NC(=O)C(CCC(=O)O)N1Cc2c(N)cccc2C1=O (configuration not stated)
23,181,O=C(Nc1cccc(C(F)(F)F)c1)N1CCc2cc(Oc3cc(Cl)ncn3)ccc21
24,148 to 150,CC(C)Oc1ccc(-c2nc3n(c2-c2ccncc2)CCC3)cc1

row,melting point [°C],SMILES
1,214 to 216,CN(Cc1ccc(NC(=O)C2=Cc3cc(-c4ccc5c(c4)CCO5)ccc3S(=O)(=O)CC2)cc1)C1CCOCC1
2,83,Cc1ccc2oc(-c3ccccc3[N+](=O)[O-])cc2c1
3,198 to 200,N#Cc1c(Br)[nH]c(Br)c1C(F)(F)F
4,74 to 75,CCOC(=O)NC(Cc1ccccc1)c1ccccc1 (configuration not stated)
5,72 to 74,CCOC(=O)CCC1CCCN2CCc3c([nH]c4ccccc34)C12 (configuration not stated)
6,146 to 148,CC(C)Oc1ccccc1C1(CC(=O)O)C(=O)Nc2ccc(Cl)cc21 (configuration not stated)
7,101 to 104,COC(Oc1cc(Cl)c(Cl)c(Cl)c1)C(=O)O (configuration not stated)
8,123 to 124,Nc1c(CC(=O)O)cccc1Oc1ccc(Cl)cc1Cl
9,228,O=C(O)c1ccc([C@H]2CC[C@H](C3CCC4(CC3)OCCO4)CC2)cc1F
10,136 to 137,CSCC1=C(c2ccccc2)C(=O)N(C(C)(C)C(=O)O)CO1
11,249 to 251,Cc1ccccc1-c1c(C2CCN(C)CC2)[nH]c(=O)c2ccccc12
12,82 to 83,CCC(=O)OCC1(COC(=O)CC)c2ccccc2-c2ccccc21
13,176 to 180,CCc1cc(=O)c(C(=O)OC)c(C)[nH]1
14,73 to 74,OCC1=NOC(c2ccccc2)C1 (configuration not stated)
15,71 to 73,COc1ccc(C2(C#Cc3cccc(C(=O)O)c3)CCCC(=O)C2)cc1OC1CCCC1 (configuration not stated)
16,74 to 75,CCNC(=O)OC1=C(c2ccccc2)Oc2ccccc2-n2cccc21
17,55 to 60,O=S(=O)(c1ccccc1)c1c[nH]c2cccc(CCO)c12
18,135,O=C(COc1cc(-c2ccccc2)nc2ccccc12)N1CCCC1
19,194 to 195,O=C1CCCN1c1cccc(-n2cnc3cc(Br)cnc32)c1
20,106 to 108,COC(=O)CCS(=O)c1cc(C(C)(C)C)c(O)c(C(C)(C)C)c1 (configuration not stated)
21,192 to 194,COc1ccc(-c2cncc(C#N)c2Oc2ccc3[nH]ccc3c2)cc1OC
22,49 to 51,CC(O)C(=O)c1ccc(F)cc1F (configuration not stated)
23,144 to 145,CCOC(=O)c1c(O)c(O)c(C(=O)OCC)n1Cc1ccccc1
24,171 to 173,N#Cc1ccc(S(=O)(=O)n2ccc3ccccc32)cc1C#N

row,melting point [°C],SMILES
1,203,Cc1cc(C)nc(NC(N)=Nc2ccc(Cl)cc2)n1
2,229 to 230,CCN(CC)c1ccc2nc3c4ccccc4c(=Nc4cc(C)nc5ccccc45)cc-3oc2c1
3,135 to 143,CC(=O)Nc1ccc(-c2ccccc2C#N)cc1C
4,220 to 222,COC(=O)c1cnn(-c2cc(Cl)cc(Cl)c2)c1C(N)=O
5,59 to 61,CCOC(=O)c1c(C(F)(F)F)nc(C(F)F)c(C(=O)OC)c1OCC
6,123,COC(C)=CC(=O)Nc1ccc(Cl)c(Cl)c1
7,266 to 268,O=c1[nH]c2sccc2c2ccccc12
8,175,Cc1nc(C)c(-c2ccc(OC3SCC(O)C(O)C3O)cn2)s1 (configuration not stated)
9,> 300,CC(=O)Nc1cccc2c1C(=O)c1c-2n[nH]c1-c1ccc(C(F)(F)F)cc1
10,155 to 156,CS(=O)(=O)c1ccc(-n2nccc2-c2ccc(Br)cc2)cc1F
11,> 260,CCOC(=O)c1cnc2ccc(OC)cc2c1O
12,75,COc1cc(O)cc(C(F)(F)F)c1
13,172 to 179,CCCCCN1C(=O)C(CCC(=O)OC)(NC(=O)C2CCc3ccccc3C2)c2ccccc21 (configuration not stated)
14,132 to 133,CC(C)(C)[Si](OCC#Cc1ccc2ncc3c(c2c1)C(O)CCC3)(c1ccccc1)c1ccccc1 (configuration not stated)
15,143 to 145,COc1ccc(OC)c2c1C[C@](O)(C1(C)OCCO1)CC21SCCS1
16,118 to 119,O=C(O)CCc1cn(Cc2ccc(OCc3csc(-c4cccnc4)n3)cc2)cc1-c1ccccc1
17,137 to 139,FC(F)(F)c1cccc(-c2cc(Cl)n3nccc3n2)c1
18,184 to 187,Cc1cccc(COc2cccnc2NC(=S)Nc2ccc(Cl)cc2)c1F
19,190 to 191,CCOC(=O)c1nn(-c2cccc(C)c2)c(=O)c2c(N)scc12
20,92 to 94,CC(C)(c1ccccc1)c1ccc(N)c([N+](=O)[O-])c1
21,115 to 117,COc1ccc2cc(C=NCc3ccccc3)ccc2c1
22,82 to 83,CCn1cc(CC(=O)O)c(OCCCc2ccc(OCOC)cc2Oc2ccc(C(F)(F)F)cn2)n1
23,108 to 109,CCCCCCCCCCCCC1=C(O)C(=O)NC1=O
24,185,CCOC(=O)c1nccn1C1Cc2c(cccc2-c2ccccc2)C1=O (configuration not stated)

row,melting point [°C],SMILES
1,181 to 183,COC(=O)c1ccc(C)c(C2=NC(C)(C(C)C)C(=O)N2)c1Cl (configuration not stated)
2,274,FC(F)(F)c1cc(-c2ccc(Cl)cc2)nc2c(-c3ccncc3)cnn12
3,116 to 117,CCCOc1cc(C(=O)CCC(=O)O)ccc1OCC
4,169 to 171,COC(=O)C(C#N)C(c1ccccc1OC)c1ccnc2ccccc12 (configuration not stated)
5,152 to 153,O=C(O)c1cccc([N+](=O)[O-])c1SCc1ccccc1
6,154 to 155,N#Cc1ccc(N(Cc2ccc(OS(N)(=O)=O)c(Cl)c2)n2cnnc2)cc1-c1ccoc1
7,129 to 132,COc1cc(C(C)N(O)C(N)=O)cc(OC)c1OC(C)c1ccccc1 (configuration not stated)
8,35 to 36.5,CCOC(=O)c1ccc2ccccc2c1
9,190 to 193,CC(C)(C)NS(=O)(=O)c1ccccc1-c1ccc(NC(=O)C(C)(C)Nc2cccc(C#N)c2)cc1
10,191,COC(=O)C1=C(C)NC(C)=C(c2ccccc2)C1c1cccc(Cl)c1 (configuration not stated)
11,204,Cc1nn(C)c(NC(=O)Nc2ccccc2)c1C1=CCCC1
12,75 to 76,Fc1nc2ccccc2cc1Br
13,132 to 138,CC(Oc1ccc(Oc2cnc3cc(Cl)ccc3n2)cc1F)C(=O)O (configuration not stated)
14,227 to 228,Cc1cc(C(=O)N(C)C)ccc1-c1ccc(C(=O)Nc2ccc(Br)c(N3CCN(C)CC3)c2)cc1
15,186 to 188,OC1N=C(c2ccccc2F)c2cc(Cl)ccc2-c2ncncc21 (configuration not stated)
16,113 to 115,ON=CCc1ccc(F)cc1
17,131 to 133,COc1cc(C2COc3c(C)c(C)c(NC(=O)CC(C)(C)C)c(C)c32)ccc1C(C)=O (configuration not stated)
18,144 to 157,N#Cc1c(N2CCN(C(=O)c3ccc4ccccc4n3)CC2)c2ccccc2n(Cc2ccc(F)cc2)c1=O
19,260 to 262,CC(C)(C)C(NC(=O)c1cc(Cl)cc(Cl)c1)Nc1c(Nc2cccnc2)c(=O)c1=O (configuration not stated)
20,114 to 116,CCOC(=O)C1Cc2cc(-c3noc4ccccc34)c(Cl)c(Cl)c2O1 (configuration not stated)
21,135 to 136,CC(C)(C)Oc1cccc(C(=O)Nc2ccc(OCCN3CCOCC3)c3ccccc23)c1
22,289 to 291,COc1ccc2c(c1)C(O)=C(C(=O)Nc1cncc(Cl)n1)N(C)S2(=O)=O
23,434,CC(Nc1nc(Oc2cccc3[nH]c(=O)c(N)nc23)cc(-c2ccc(C(F)(F)F)cc2)n1)c1ccc(F)cc1 (configuration not stated)
24,110 to 114,NCC(=O)N[C@H]1CC[C@H](O)CC1

row,SMILES,melting point [°C]
1,O=C(O)c1ncn2c1[C@@H]1CCN1C(=O)c1ccccc1-2,232
2,CC[C@H]1CNCC[C@H]1CCc1c[nH]c2ccccc12,150
3,N#Cc1nn(-c2c(Cl)cc(C(F)(F)F)cc2Cl)c(N)c1-c1ccc(C(F)(F)F)o1,148 to 151
4,COc1cc(C2c3cc4c(cc3C(NC3=C(C)C(=O)N(C)C3=O)C3COC(=O)C23)OCO4)cc(OC)c1O (configuration not stated),172 to 176
5,c1cnc2[nH]cc(C3CN4CCC3CC4)c2c1 (configuration not stated),185
6,N#Cc1ccc2[nH]cc(C=C[N+](=O)[O-])c2c1,217 to 220
